Where two headings read alike, the source gives them in different places.

The target in data set [1] is T1, human histamine-3 receptor (Homo sapiens, UniProt Q9Y5N1).
T1 construct: expressed in transfected cells; host or cells: HEK293 and CHO-K1 (American Type Culture Collection)
Description: Histamine analogue-binding inhibition test ([3H]N-α-methylhistamine, membrane specimen). Conditions: result in words.
Description: A membrane specimen prepared from the cells having expressed a histamine-3 receptor was incubated in an assay buffer (50 mM Tris buffer, pH 7.4) along with a test compound and 20,000 cpm [^3H]N-α-methylhistamine (by NEN) therein, at 25° C. for 2 hours, and then filtered through a glass filter GF/C. After washed with 50 mM Tris buffer (pH 7.4), the radioactivity on the glass filter was determined. The non-specific binding was determined in the presence of 10 μM thioperamide (by Sigma), and the 50% inhibitory concentration (IC50) of the test compound to the specific N-α-methylhistamine binding was calculated [see Molecular Pharmacology, Vol. 55, p.

Data set [2] in a line: Brain/cerebrospinal fluid migration test. The data set is classed as in vivo, SD male rats. Conditions: rat; for concentration at 30 min / concentration at 2 h: male, SD. The procedure:
A test compound was orally or intravenously administered to SD male rats (7 to 10 week-age, 200 to 400 g). While they were anesthetized with ether for a predetermined period of time, the whole blood was collected from them via their abdominal aorta, using a heparin-processed syringe. Then, their occipital skin was cut open, and a dental 30 G needle was stuck into the cervical vertebrae and further into the subarachnoid cavity. Via the tube connected to the dental 30 G needle, from 50 to 100 μL of the cerebrospinal fluid was collected in a 1 mL-syringe, and then the brain was taken out. The blood sample was centrifuged (4° C., 6000 rpm, 10 min), and the resulting plasma was stirred with ethanol of three times (including an internal standard substance) added thereto. The brain sample was homogenized with 2 mL of water added thereto, and a part of it was taken out and stirred with ethanol of three times (including an internal standard substance) added thereto. The cerebrospinal fluid was homogenized with 3 times its volume of ethanol (including an internal standard substance) added thereto. The above samples were left at −20° C. for 20 minutes, then centrifuged (4° C., 12,000 g, 10 min), and the supernatant was analyzed through LC/MS/MS. According to a relative calibration curve method, the concentration of the test compound in the plasma, in the brain and in the cerebrospinal fluid was determined.

T1 sequence (Q9Y5N1 whole entry): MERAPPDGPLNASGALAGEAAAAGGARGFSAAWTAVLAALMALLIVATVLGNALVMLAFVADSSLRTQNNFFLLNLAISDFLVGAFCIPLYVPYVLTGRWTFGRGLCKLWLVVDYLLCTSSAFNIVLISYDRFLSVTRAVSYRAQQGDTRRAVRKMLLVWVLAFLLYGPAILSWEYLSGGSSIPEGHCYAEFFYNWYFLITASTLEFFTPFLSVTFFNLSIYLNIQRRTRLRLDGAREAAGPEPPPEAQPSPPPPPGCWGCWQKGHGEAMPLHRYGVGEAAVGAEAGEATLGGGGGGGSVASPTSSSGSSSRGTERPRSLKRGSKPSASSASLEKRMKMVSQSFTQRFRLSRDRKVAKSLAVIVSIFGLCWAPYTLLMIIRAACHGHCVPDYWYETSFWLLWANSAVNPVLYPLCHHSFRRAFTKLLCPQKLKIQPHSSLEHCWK

For `Cn1c(-c2ccc(OCCCN3CCCC3)cc2)nc2ccccc2c1=O` [Example 16, 3-Methyl-2-[4-(3-pyrrolidin-1-ylpropoxy)phenyl]-4(3H)-quinazoline], the “inhibition of the binding of N-alpha-methylhistamine (histamine analogue) to histamine-H3 receptor” value in data set [1] is listed as “strongly inhibited”. In addition, the concentration at 30 min in data set [2] (cerebrospinal fluid, intravenous administration 3 mg/kg, in 30 minutes, read-out: concentration in the cerebrospinal fluid) is 134 nM; in data set [2] (plasma, intravenous administration 3 mg/kg, in 30 minutes, read-out: concentration in the plasma) it was 1360 nM. The “concentration in the brain” value in data set [2] (intravenous administration 3 mg/kg, in 30 minutes) was determined as 2.22 nmol/g.

As for `COc1ccnc2c(=O)n(C)c(-c3ccc(OC4CCN(C5CCC5)CC4)cc3)nc12` [Example 59, 2-{4-[(1-cyclobutylpiperidin-4-yl)oxy]phenyl}-8-methoxy-3-methylpyrido[3,2-d]pyrimidin-4(3H)-one], the melting point lay in the range of 182.2 to 205.2 °C.

On to `Cn1c(-c2ccc(OC3CCN(C4CC4)CC3)cc2)nc2ccccc2c1=O` [Example 89, 3-Methyl-2-[4-(1-cyclopropyl-4-piperidinyloxy)-phenyl]-4(3H)-quinazolinone], for which the concentration at 2 h in data set [2] (cerebrospinal fluid, oral administration 10 mg/kg, in 2 hours, read-out: concentration in the cerebrospinal fluid) stood at 27 nM; in data set [2] (plasma, oral administration 10 mg/kg, in 2 hours, read-out: concentration in the plasma), 700 nM. In addition, the “concentration in the brain” value in data set [2] (oral administration 10 mg/kg, in 2 hours) was 1.45 nmol/g.

By melting point is commonly meant the temperature of the solid-liquid transition.

The values are drawn from patent publication US7960394B2, “Quinazoline derivative” (Banyu Pharmaceutical Co., Ltd., priority 2004, dated 2011).
